Test results taken from patent publication US11260003B2, “Antimicrobial composition and cosmetic containing antimicrobial composition” (ADEKA CORPORATION, priority 2017, dated 2022).

Tests used:
Assay type in all cases: cell-based
[1] = system: Escherichia coli ATCC 8739, Pseudomonas aeruginosa ATCC 9027, Staphylococcus aureus ATCC 6538, Candida albicans ATCC 10231, Aspergillus brasiliensis ATCC 16404; experiment: five-species minimum inhibitory concentration (five-species MIC), microplate turbidity test
Description: Test solutions containing these microorganisms were prepared as follows: the bacteria were precultured on SCD (soybean casein digest) liquid medium and the yeast and fungus were precultured on glucose agar medium; this was followed in each case by adjustment of the microorganism concentration in the liquids to the level of 10^6 to 10^7 cfu/mL using 0.9% aqueous NaCl solution.
20 μL of each test solution was dispensed onto a microplate; 180 μL of each antimicrobial composition—prepared by the dilution with medium of component (B) and component (C) at the prescribed concentrations given in Table 1 and component (A) at various concentrations was added; and stirring was carried out to provide a mixed solution (the test sample). Component (A), component (B), and component (C) were prepared here so as to provide the prescribed concentrations in mass % in the mixed solutions. Each mixed solution was then cultured as follows: 48 hours in a thermostat at 33° C. for the bacterial mixed solutions; 3 days at 25° C. for the yeast mixed solutions; and 1 week at 25° C. for the fungus mixed solutions. The post-culture turbidity of each mixed solution was observed. For each microorganism, the mixed solutions containing component (A) at the various concentrations, and each blending condition for component (B) or component (C) (each of the mixed solutions), those mixed solutions were identified where turbidity or the presence of colonies/filaments was not seen (i.e., mixed solutions where growth of the test microorganism had been stopped). For each of the five microorganisms, the lowest component (A) concentration in the mixed solutions where growth had been stopped was designated the minimum inhibitory concentration. […] In addition, the antimicrobial activity (enhancement effect) was evaluated also using the numerical MIC values given in those instances where a “+” or “−” is provided.

[2] = system: Escherichia coli (bacteria) ATCC 8739; experiment: minimum inhibitory concentration (MIC), microplate turbidity test; details: mass % of component (A) (A-4 or A-5); 48 hours at 33° C.; component (B)/(C) at 5%
Description: (§1) E. coli: Escherichia coli (bacteria) ATCC 8739 Test solutions containing these microorganisms were prepared by preculture on SCD liquid medium followed by adjusting the microorganism concentration in the liquids to the level of 10^6 to 10^7 cfu/mL using a 0.9% aqueous NaCl solution. 20 μL of each test solution was dispensed onto a microplate; 180 μL of each antimicrobial composition—prepared by the dilution with medium of component (B) and component (C) at the prescribed concentrations and component (A) at various concentrations—was added; and stirring was carried out to provide a mixed solution (the test sample). Component (A), component (B), and component (C) were prepared here so as to provide the prescribed concentrations in mass % in the mixed solutions. Each mixed solution was then cultured for 48 hours in a thermostat at 33° C., after which the turbidity of each mixed solution was observed. […]

[3] = system: Pseudomonas aeruginosa (bacteria) ATCC 9027; experiment: as above; details: mass % of component (A) (A-4 or A-5); 48 hours at 33° C.; component (B)/(C) at 5%
Description: as §1, with “P. aer: Pseudomonas aeruginosa” for “E. coli: Escherichia coli”, “9027” for “8739”

CCCCC(CC)COCC(O)CO (stereo not shown) [Comp. Ex. 1, 2-ethylhexyl glyceryl ether]
five-species MIC (%) ([1]; Table 1, mass % of component (A) A-1 at which growth of all five microorganisms stopped, component (B)/(C) at prescribed %): 1.00+ %

CCCCCCCCOCC(O)CO (stereo not shown) [Comp. Ex. 5, octyl glyceryl ether]
five-species MIC (%) ([1]; Table 2, mass % of component (A) A-2 at which growth of all five microorganisms stopped, component (B)/(C) at prescribed %): 0.50+ %

OCC(O)COC1CCCCC1 (stereo not shown) [Comp. Ex. 9, cyclohexyl glyceryl ether]
five-species MIC (%) ([1]; Table 3, mass % of component (A) A-3 at which growth of all five microorganisms stopped, component (B) at prescribed %): 3.00%

CCCCCCC(O)CO (stereo not shown) [Comp. Ex. 10, 1,2-octanediol]
MIC (%) E. coli [2]: 0.13%
MIC (%) P. aer [3]: 0.38%

CCCCCCOCC(O)CO (stereo not shown) [compound 14, hexyl glyceryl ether]
MIC (%) E. coli [2]: 0.25%
MIC (%) P. aer [3]: 0.75%
